Data set [1] deals with Calf thymus DNA. The following applies: Bos taurus.
Description: Binding affinity to calf thymus DNA assessed as binding constant by Scatchard plot analysis
Data set [2] concerns HCT-116. Nature of the data set: Induction of apoptosis in p53 knockout human HCT116 cells assessed as late apoptotic cells at 1 uM after 48 hrs by Annexin V-FITC/propidium iodide staining based assay (reference value: 2 +/- 1%). Type of data set: functional.
The subject of data set [3] is K562. The data set is described as follows: Binding affinity to P-gp in human K562 cells assessed as drug accumulation at 1 uM incubated for 1 to 24 hrs by flow cytometry. Type of data set: cell-based.
The subject of another data set is HeLa. The data set is described as follows: Antiproliferative activity against human HeLa cells after 72 hrs by MTT assay. In kind it is functional, cell-based.
Data set [4] is described as follows: Cell cycle arrest in p53 knockout human HCT116 cells assessed as accumulation in G2/M phase at 1 uM after 24 hrs. In kind it is functional, cell-based. The following applies: HCT-116.
Data set [5] in a line: Cytotoxicity against hFB-hTERT6 assessed as reduction in cell viability after 72 hrs by MTT assay. The following applies: Homo sapiens, hFB-hTERT6, 72 h.
The test system of data set [6] is Calf thymus DNA. Nature of the data set: Binding affinity to calf thymus DNA assessed as decrease in extinction of absorption maxima at 5 uM by spectrophotometric analysis. In kind it is nucleic-acid assay. More on the design: scale not given: the % may be the effect or the level left. The following applies: Bos taurus.
Data set [7] has as its system HCT-116. The data set is described as follows: Induction of apoptosis in human HCT116 cells assessed as late apoptotic cells at 1 uM after 48 hrs by Annexin V-FITC/propidium iodide staining based assay (reference value: 1 +/- 1%). In kind it is functional.
Data set [8] relates to K562. The data set is described as follows: cells. The following applies: Homo sapiens, K562, 72 h.
Description: Antiproliferative activity against human K562 cells after 72 hrs by MTT assay
In data set [9] the target is T1, DNA topoisomerase 1 (Homo sapiens) (UniProt P11387).
T1 sequence (whole entry): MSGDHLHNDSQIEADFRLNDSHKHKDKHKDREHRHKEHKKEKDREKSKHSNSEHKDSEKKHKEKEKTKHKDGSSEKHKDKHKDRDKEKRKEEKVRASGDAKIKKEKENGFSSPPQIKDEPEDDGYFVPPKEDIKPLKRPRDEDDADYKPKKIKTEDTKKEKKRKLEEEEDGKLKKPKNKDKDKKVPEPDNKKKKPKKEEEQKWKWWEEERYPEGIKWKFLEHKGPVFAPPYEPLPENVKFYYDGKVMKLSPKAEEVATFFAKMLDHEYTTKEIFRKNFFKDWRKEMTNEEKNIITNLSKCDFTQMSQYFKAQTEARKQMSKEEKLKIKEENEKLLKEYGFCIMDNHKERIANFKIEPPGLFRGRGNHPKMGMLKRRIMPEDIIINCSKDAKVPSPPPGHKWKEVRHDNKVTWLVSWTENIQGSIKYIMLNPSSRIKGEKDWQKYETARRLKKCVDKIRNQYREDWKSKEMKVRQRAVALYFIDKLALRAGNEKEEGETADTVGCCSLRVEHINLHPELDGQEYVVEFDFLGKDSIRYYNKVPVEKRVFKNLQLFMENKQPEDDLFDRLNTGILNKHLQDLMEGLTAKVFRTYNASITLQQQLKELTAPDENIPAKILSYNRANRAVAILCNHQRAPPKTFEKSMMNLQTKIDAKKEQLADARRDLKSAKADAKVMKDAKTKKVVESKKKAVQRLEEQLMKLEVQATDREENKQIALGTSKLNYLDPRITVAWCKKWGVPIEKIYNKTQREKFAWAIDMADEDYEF
The data set is described as follows: Inhibition of topoisomerase 1 (unknown origin) assessed as attenuation of enzyme-mediated relaxation of supercoiled pBR322 DNA up to 1 uM after 30 mins by agarose gel electrophoresis.

In data set [10] the test system is P388. The data set is described as follows: Antitumor activity against mouse P388 cells transplanted in DBA2/BDF1 mouse assessed as mean life span at 50 mg/kg, ip dosed daily for 5 days (reference value: 9.7 +/- 1.1 day). In kind it is functional.
The nature of data set [11]: Cell cycle arrest in human HCT116 cells assessed as accumulation in G2/M phase at 1 uM after 24 hrs. Type of data set: functional, cell-based. The following applies: HCT-116.
In another data set the test system is K562/4. Nature of the data set: Binding affinity to P-gp in human K562/4 cells assessed as drug accumulation at 1 uM incubated for 1 to 24 hrs by flow cytometry. Type of data set: cell-based.
The nature of the next data set: cells. Particulars: Homo sapiens, HCT-116, 72 h.
Data set [12] can be described thus: Toxicity in ip dosed DBA2/BDF1 mouse transplanted with mouse P388 cells dosed daily for 5 days. Type of data set: organism-based. The following applies: in vivo.
Data set [13] addresses MAP kinase-interacting serine/threonine-protein kinase 1 (Homo sapiens, UniProt Q9BUB5). Nature of the data set: Inhibition of human MKNK1 by flashplate based radiometric 33pan-quinase assay.
The test system of data set [14] is P388. The data set is described as follows: Antitumor activity against mouse P388 cells transplanted in DBA2/BDF1 mouse assessed as mean life span at 30 mg/kg, ip dosed daily for 5 days (reference value: 9.6 to 9.7 day). In kind it is functional.
Data set [15] addresses Fibroblast growth factor receptor 1 (Homo sapiens, UniProt P11362, V561M). Nature of the data set: Inhibition of human FGF-R1 V561M mutant expressed in sf9 cells by flashplate based radiometric 33pan-quinase assay.
The test system of data set [16] is Mus musculus. The data set is described as follows: Toxicity in DBA2/BDF1 mouse transplanted with mouse P388 cells at 5 to 40 mg/kg, ip dosed daily for 5 days. In kind it is organism-based. Particulars: in vivo, 120 h.
Data set [17] addresses Dual serine/threonine and tyrosine protein kinase (Homo sapiens, UniProt Q6XUX3). Nature of the data set: Inhibition of human RIPK5 by flashplate based radiometric 33pan-quinase assay.
Data set [18] has as its system P388. Nature of the data set: Antitumor activity against mouse P388 cells transplanted in DBA2/BDF1 mouse assessed as mean life span at 5 mg/kg, ip dosed daily for 5 days (reference value: 9.6 +/- 0.5 day). In kind it is functional.
The test system of data set [19] is P388. The data set is described as follows: Antitumor activity against mouse P388 cells transplanted in DBA2/BDF1 mouse assessed as mean life span at 5 mg/kg, ip dosed daily for 5 days relative to control. Type of data set: functional.
For data set [20], the target named is Serine/threonine-protein kinase pim-3 (Homo sapiens, UniProt Q86V86). Nature of the data set: Inhibition of full length human N-terminal GST-HIS6-tagged PIM3 expressed in sf9 cells by flashplate based radiometric 33pan-quinase assay.
In data set [21] the test system is Mus musculus. Nature of the data set: Toxicity in DBA2/BDF1 mouse transplanted with mouse P388 cells assessed as reduction in spleen mass at 50 mg/kg, ip dosed daily for 5 days relative to control. Type of data set: organism-based. Also on record: scale not given: the % may be the effect or the level left. The following applies: in vivo, 120 h.
The test system of data set [22] is P388. Nature of the data set: Antitumor activity against mouse P388 cells transplanted in DBA2/BDF1 mouse assessed as mean life span at 10 mg/kg, ip dosed daily for 5 days (reference value: 9.6 +/- 0.5 day). In kind it is functional.
Data set [23] has as its system P388. The data set is described as follows: Antitumor activity against mouse P388 cells transplanted in DBA2/BDF1 mouse assessed as mean life span at 20 mg/kg, ip dosed daily for 5 days (reference value: 9.6 +/- 0.5 day). Type of data set: functional.
Data set [24] concerns the target Serine/threonine-protein kinase pim-1 (Homo sapiens, UniProt P11309). The data set is described as follows: Inhibition of full length human N-terminal GST-HIS6-tagged PIM1 expressed in sf9 cells by flashplate based radiometric 33pan-quinase assay.
For data set [25], the system named is Mus musculus. The data set is described as follows: Toxicity in mouse P388 cells transplanted DBA2/BDF1 mouse assessed as mouse mortality at 50 mg/kg, ip dosed daily for 5 days. In kind it is organism-based. The following applies: in vivo, 120 h.
The subject of data set [26] is P388. Nature of the data set: Antitumor activity against mouse P388 cells transplanted in DBA2/BDF1 mouse assessed as mean life span at 40 mg/kg, ip dosed daily for 5 days (reference value: 9.6 +/- 0.5 day). Type of data set: functional.

The results in this text go back to ChEMBL document CHEMBL3774310, “Discovery of antitumor anthra[2,3-b]furan-3-carboxamides: Optimization of synthesis and evaluation of antitumor properties” (Eur J Med Chem, 2016).

Calls of active or inactive are those of the source. No cut-off for these calls is given here.

Serine/threonine-protein kinase pim-1, sequence (P11309 whole entry): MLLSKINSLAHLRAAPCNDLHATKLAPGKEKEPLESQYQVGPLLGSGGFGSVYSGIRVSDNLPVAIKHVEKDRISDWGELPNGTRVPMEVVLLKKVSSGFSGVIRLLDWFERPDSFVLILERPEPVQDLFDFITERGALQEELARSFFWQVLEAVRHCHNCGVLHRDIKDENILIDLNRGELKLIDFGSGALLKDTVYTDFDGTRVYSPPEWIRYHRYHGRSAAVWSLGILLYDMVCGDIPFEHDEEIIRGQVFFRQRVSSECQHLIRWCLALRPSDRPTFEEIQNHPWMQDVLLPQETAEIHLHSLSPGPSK
Dual serine/threonine and tyrosine protein kinase, sequence (Q6XUX3 whole entry): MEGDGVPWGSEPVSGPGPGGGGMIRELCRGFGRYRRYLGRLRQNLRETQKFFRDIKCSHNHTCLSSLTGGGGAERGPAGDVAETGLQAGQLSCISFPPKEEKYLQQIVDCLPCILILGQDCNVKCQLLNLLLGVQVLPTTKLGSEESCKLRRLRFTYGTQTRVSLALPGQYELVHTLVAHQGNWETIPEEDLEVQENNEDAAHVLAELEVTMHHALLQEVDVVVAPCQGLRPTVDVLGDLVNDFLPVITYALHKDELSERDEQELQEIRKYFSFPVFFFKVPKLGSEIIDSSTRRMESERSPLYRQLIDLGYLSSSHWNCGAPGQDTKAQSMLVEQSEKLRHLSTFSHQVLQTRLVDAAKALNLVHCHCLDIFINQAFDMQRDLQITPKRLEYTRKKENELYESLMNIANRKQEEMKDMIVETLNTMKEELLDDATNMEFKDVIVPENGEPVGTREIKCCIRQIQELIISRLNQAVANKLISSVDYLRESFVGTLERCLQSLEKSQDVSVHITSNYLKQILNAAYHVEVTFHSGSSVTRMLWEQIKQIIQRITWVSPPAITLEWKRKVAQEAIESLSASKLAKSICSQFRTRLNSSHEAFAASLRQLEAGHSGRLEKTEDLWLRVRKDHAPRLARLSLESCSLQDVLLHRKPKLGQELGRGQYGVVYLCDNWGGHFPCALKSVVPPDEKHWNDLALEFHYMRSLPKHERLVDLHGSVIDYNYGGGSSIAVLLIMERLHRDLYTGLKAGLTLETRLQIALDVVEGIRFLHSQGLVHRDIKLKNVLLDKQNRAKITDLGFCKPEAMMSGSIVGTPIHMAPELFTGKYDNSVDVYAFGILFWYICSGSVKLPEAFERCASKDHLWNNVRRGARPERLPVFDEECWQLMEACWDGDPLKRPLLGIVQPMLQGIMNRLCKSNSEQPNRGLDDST
MAP kinase-interacting serine/threonine-protein kinase 1, sequence (Q9BUB5 whole entry): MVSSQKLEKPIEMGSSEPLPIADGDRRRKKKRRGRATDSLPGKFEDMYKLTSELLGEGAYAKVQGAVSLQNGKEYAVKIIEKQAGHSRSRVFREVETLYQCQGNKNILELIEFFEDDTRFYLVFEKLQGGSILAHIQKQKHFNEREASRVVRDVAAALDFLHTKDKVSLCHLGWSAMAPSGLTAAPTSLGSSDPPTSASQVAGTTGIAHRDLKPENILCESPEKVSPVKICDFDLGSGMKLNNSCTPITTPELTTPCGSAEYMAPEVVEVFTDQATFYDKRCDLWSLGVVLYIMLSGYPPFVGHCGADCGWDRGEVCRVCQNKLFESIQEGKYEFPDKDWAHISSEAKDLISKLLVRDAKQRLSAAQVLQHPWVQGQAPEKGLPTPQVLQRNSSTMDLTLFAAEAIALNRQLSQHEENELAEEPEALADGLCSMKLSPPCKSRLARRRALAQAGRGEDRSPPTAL
Fibroblast growth factor receptor 1, sequence (P11362 22-822 V561M limits assumed): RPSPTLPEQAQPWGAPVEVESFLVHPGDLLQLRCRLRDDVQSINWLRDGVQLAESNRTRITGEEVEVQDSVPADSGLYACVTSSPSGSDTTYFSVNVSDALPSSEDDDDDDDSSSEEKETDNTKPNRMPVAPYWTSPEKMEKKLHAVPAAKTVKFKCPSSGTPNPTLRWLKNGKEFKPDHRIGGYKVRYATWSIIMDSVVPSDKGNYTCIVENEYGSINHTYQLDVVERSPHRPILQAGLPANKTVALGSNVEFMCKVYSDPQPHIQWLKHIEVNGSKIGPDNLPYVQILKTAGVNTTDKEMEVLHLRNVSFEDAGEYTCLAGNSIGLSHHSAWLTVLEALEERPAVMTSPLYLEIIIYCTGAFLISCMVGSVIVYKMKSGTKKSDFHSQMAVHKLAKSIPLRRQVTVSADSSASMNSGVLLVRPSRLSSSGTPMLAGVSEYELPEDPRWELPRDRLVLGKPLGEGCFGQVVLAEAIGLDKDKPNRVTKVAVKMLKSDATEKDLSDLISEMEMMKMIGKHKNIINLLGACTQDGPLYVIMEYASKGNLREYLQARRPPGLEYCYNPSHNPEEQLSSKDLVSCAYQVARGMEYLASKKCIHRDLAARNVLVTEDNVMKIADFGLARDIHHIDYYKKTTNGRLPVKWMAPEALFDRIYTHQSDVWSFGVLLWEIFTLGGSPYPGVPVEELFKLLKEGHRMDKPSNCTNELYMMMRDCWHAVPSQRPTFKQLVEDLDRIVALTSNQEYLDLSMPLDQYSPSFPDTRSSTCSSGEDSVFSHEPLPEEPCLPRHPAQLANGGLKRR

In the data set on Calf thymus DNA [1], `CS(=O)(=O)O.Cc1oc2c(O)c3c(c(O)c2c1C(=O)N1CC[C@@H](N)C1)C(=O)c1ccccc1C3=O` registered a Ka of 5 ×10⁵ /M. The outcome (with HCT-116 [2]; in data set [4]; in the data set on HCT-116 [7]; in data set [11]) was Active. Further, the outcome (in the data set on K562 [3]; in [9]; with K562/4) was inactive. Besides, the IC50 with HeLa is 2.1 µM; in [5], above 50 µM; in the data set with K562 [8], 1.1 µM; in the data set “cells” it was 1.2 µM. Also, the Activity was determined as 36% with Calf thymus DNA [6] and 17.3 days with P388 [10]. Besides, the MTD at 120 h in [12] was 50 mg/kg.
On to `CS(=O)(=O)O.Cc1oc2c(O)c3c(c(O)c2c1C(=O)N1CC[C@H](N)C1)C(=O)c1ccccc1C3=O`, for which the Activity with HCT-116 [2] is 14%; with P388 [14] it was 20.8 days; with Mus musculus [16] it was “Non-toxic”; in the data set on P388 [18] it was 13.4 days; in the data set on P388 [19] it was 140%; in the data set with Mus musculus [21] it was 40%. The Activity with Calf thymus DNA [6] was 36%; with HCT-116 [7], 13%; in the data set with P388 [10] it was 6.5 days; with P388 [22], 16.3 days; in the data set with P388 [23], 21.3 days; with Mus musculus [25], “Toxic”. Besides, in the data set on P388 [26], the Activity was 25.2 days. Besides, the concentration for half-maximal inhibition (IC50) in [13] is below 5 µM; in [15], below 5 µM; in data set [17], below 5 µM; in data set [5], above 50 µM; in data set [20] it was below 5 µM; in [24] it was below 5 µM. Also, the outcome (in the data set with K562 [3]; in [9]; with K562/4) was inactive. The result in data set [4] and in data set [11] was Active. This compound also gave an MTD at 120 h in data set [12] of 30 mg/kg.
